Tests used:
Type in all cases: in vivo
[1] = tested on: pigweed (Amaranthus retroflexus); assay: Test A preemergence, directed soil spray, visual injury rating; settings: 0 is no effect, 100 is complete control
Excerpt: (§1) Seeds of plant species selected from barnyardgrass (Echinochloa crus-galli), kochia (Kochia scoparia), ragweed (common ragweed, Ambrosia elatior), ryegrass, It. (Italian ryegrass, Lolium multiflorum), foxtail, giant (giant foxtail, Setaria faberii), and pigweed (Amaranthus retroflexus), were planted into a blend of loam soil and sand and treated preemergence with a directed soil spray using test chemicals formulated in a non-phytotoxic solvent mixture which included a surfactant.
(§2) At the same time, plants selected from these weed species and also wheat (Triticum aestivum), corn (Zea mays), blackgrass (Alopecurus myosuroides), and galium (catchweed bedstraw, Galium aparine), were planted in pots containing the same blend of loam soil and sand and treated with postemergence applications of test chemicals formulated in the same manner Plants ranged in height from 2 to 10 cm and were in the one- to two-leaf stage for the postemergence treatment. Treated plants and untreated controls were maintained in a greenhouse for approximately 10 d, after which time all treated plants were compared to untreated controls and visually evaluated for injury. Plant response ratings, summarized in Table A, are based on a 0 to 100 scale where 0 is no effect and 100 is complete control. A dash (-) response means no test result.

[2] = tested on: foxtail, giant (giant foxtail, Setaria faberii); assay: as above; settings: 0 is no effect, 100 is complete control
Excerpt: as §1, §2

[3] = tested on: barnyardgrass (Echinochloa crus-galli); assay: as above; settings: 0 is no effect, 100 is complete control
Excerpt: as §1, §2

[4] = tested on: ryegrass, It. (Italian ryegrass, Lolium multiflorum); assay: as above; settings: 0 is no effect, 100 is complete control
Excerpt: as §1, §2

kochia (Kochia scoparia) [5] = assay: as above; settings: 0 is no effect, 100 is complete control
Excerpt: as §1, §2

[6] = tested on: ragweed (common ragweed, Ambrosia elatior); assay: as above; settings: 0 is no effect, 100 is complete control
Excerpt: as §1, §2

corn (Zea mays) = assay: Test A postemergence application, visual injury rating; settings: for Corn plant response rating: 0 to 100 scale, 0 no effect, 100 complete control
Excerpt: as §1, §2

[7] = tested on: pigweed (Amaranthus retroflexus); assay: as above; settings: for Pigweed plant response rating: 0 to 100 scale, 0 no effect, 100 complete control
Excerpt: as §1, §2

[8] = tested on: foxtail, giant (giant foxtail, Setaria faberii); assay: as above; settings: for Foxtail, Giant plant response rating: 0 to 100 scale, 0 no effect, 100 complete control
Excerpt: as §1, §2

[9] = tested on: barnyardgrass (Echinochloa crus-galli); assay: as above; settings: 0 to 100 scale, 0 no effect, 100 complete control
Excerpt: as §1, §2

[10] = tested on: wheat (Triticum aestivum); assay: as above; settings: for Wheat plant response rating: 0 to 100 scale, 0 no effect, 100 complete control
Excerpt: as §1, §2

[11] = tested on: blackgrass (Alopecurus myosuroides); assay: as above; settings: 0 to 100 scale, 0 no effect, 100 complete control
Excerpt: as §1, §2

[12] = tested on: ryegrass, It. (Italian ryegrass, Lolium multiflorum); assay: as above; settings: for Ryegrass, It. plant response rating: 0 to 100 scale, 0 no effect, 100 complete control
Excerpt: as §1, §2

kochia (Kochia scoparia) [13] = assay: as above; settings: 0 to 100 scale, 0 no effect, 100 complete control
Excerpt: as §1, §2

[14] = tested on: galium (catchweed bedstraw, Galium aparine); assay: as above; settings: for Galium plant response rating: 0 to 100 scale, 0 no effect, 100 complete control
Excerpt: as §1, §2

[15] = tested on: ragweed (common ragweed, Ambrosia elatior); assay: as above; settings: for Ragweed plant response rating: 0 to 100 scale, 0 no effect, 100 complete control
Excerpt: as §1, §2

[16] = tested on: barnyardgrass (Echinochloa crus-galli); assay: Test B flooded paddy test, visual rating; settings: Flood, 250 g ai/ha, applied to paddy water, rated after 13 to 15 d
Experimental: (§3) Plant species in the flooded paddy test selected from rice (Oryza sativa), sedge, umbrella (small-flower umbrella sedge, Cyperus difformis), ducksalad (Heteranthera limosa), and barnyardgrass (Echinochloa crus-galli) were grown to the 2-leaf stage for testing. At time of treatment, test pots were flooded to 3 cm above the soil surface, treated by application of test compounds directly to the paddy water, and then maintained at that water depth for the duration of the test. Treated plants and controls were maintained in a greenhouse for 13 to 15 d, after which time all species were compared to controls and visually evaluated. Plant response ratings, summarized in Table B, are based on a scale of 0 to 100 where 0 is no effect and 100 is complete control. A dash (-) response means no test result.

rice (Oryza sativa) = assay: Test B flooded paddy test, visual rating; settings: Flood, 250 g ai/ha, applied to paddy water, rated after 13 to 15 d
Experimental: as §3

[17] = tested on: ducksalad (Heteranthera limosa); assay: Test B flooded paddy test, visual rating; settings: Flood, 250 g ai/ha, applied to paddy water, rated after 13 to 15 d
Experimental: as §3

[18] = tested on: sedge, umbrella (small-flower umbrella sedge, Cyperus difformis); assay: Test B flooded paddy test, visual rating; settings: Flood, 250 g ai/ha, applied to paddy water, rated after 13 to 15 d
Experimental: as §3

[19] = 31 g ai/ha, 0 is no effect, 100 is complete control

SMILES | Plant response rating (0 to 100 scale), Pigweed ([1]; 125 g ai/ha) | Plant response rating (0 to 100 scale), Foxtail, Giant ([2]; 125 g ai/ha) | Plant response rating (0 to 100 scale), Barnyardgrass ([3]; 125 g ai/ha) | Plant response rating (0 to 100 scale), Ryegrass, It. ([4]; 125 g ai/ha) | Plant response rating (0 to 100 scale), Kochia (kochia (Kochia scoparia) [5]; 125 g ai/ha) | Plant response rating (0 to 100 scale), Ragweed ([6]; 125 g ai/ha) | Corn plant response rating (corn (Zea mays); 125 g ai/ha) | Pigweed plant response rating ([7]; 125 g ai/ha) | Foxtail, Giant plant response rating ([8]; 125 g ai/ha) | Barnyardgrass plant response rating ([9]; 125 g ai/ha) | Wheat plant response rating ([10]; 125 g ai/ha) | Blackgrass plant response rating ([11]; 125 g ai/ha) | Ryegrass, It. plant response rating ([12]; 125 g ai/ha) | Kochia plant response rating (kochia (Kochia scoparia) [13]; 125 g ai/ha) | Galium plant response rating ([14]; 125 g ai/ha) | Ragweed plant response rating ([15]; 125 g ai/ha) | Barnyardgrass plant response rating (0 to 100 scale, 0 is no effect, 100 is complete control) [16] | Rice plant response rating (0 to 100 scale, 0 is no effect, 100 is complete control) (rice (Oryza sativa)) | Ducksalad plant response rating (0 to 100 scale, 0 is no effect, 100 is complete control) [17] | Plant response rating (0 to 100 scale), Pigweed ([1]; 31 g ai/ha) | other results
Cc1nn(C)c(=O)c(-c2c(C)sc3ncccc23)c1O [Compound 14] | 0 | 0 | 0 | 10 | 0 | 0 | 0 | 0 | 0 | 0 | 0 | 0 | 0 | 0 | 0 | 0 |  |  |  |  | Plant response rating (0 to 100 scale), Pigweed ([1]; 500 g ai/ha): 0; Plant response rating (0 to 100 scale), Foxtail, Giant ([2]; 500 g ai/ha): 0; Plant response rating (0 to 100 scale), Barnyardgrass ([3]; 500 g ai/ha): 0; Plant response rating (0 to 100 scale), Ryegrass, It. ([4]; 500 g ai/ha): 20; Plant response rating (0 to 100 scale), Kochia (kochia (Kochia scoparia) [5]; 500 g ai/ha): 0; Plant response rating (0 to 100 scale), Ragweed ([6]; 500 g ai/ha): 0; Corn plant response rating (corn (Zea mays); 500 g ai/ha): 0; Pigweed plant response rating ([7]; 500 g ai/ha): 0; Foxtail, Giant plant response rating ([8]; 500 g ai/ha): 0; Barnyardgrass plant response rating ([9]; 500 g ai/ha): 0; Wheat plant response rating ([10]; 500 g ai/ha): 0; Blackgrass plant response rating ([11]; 500 g ai/ha): 0; Ryegrass, It. plant response rating ([12]; 500 g ai/ha): 20; Kochia plant response rating (kochia (Kochia scoparia) [13]; 500 g ai/ha): 0; Galium plant response rating ([14]; 500 g ai/ha): 40; Ragweed plant response rating ([15]; 500 g ai/ha): 0
CCC(=O)Oc1c(C)nn(C)c(=O)c1-c1ccc(Cl)c2sccc12 [Compound 58] | 0 | 0 | 0 | 50 | 70 | 80 | 0 | 20 | 0 | 0 | 0 | 0 | 10 | 60 | 90 | 0 | 0 | 0 | 0 | 20 | Plant response rating (0 to 100 scale), Foxtail, Giant ([2]; 31 g ai/ha): 20; Plant response rating (0 to 100 scale), Barnyardgrass ([3]; 31 g ai/ha): 0; Plant response rating (0 to 100 scale), Ryegrass, It. ([4]; 31 g ai/ha): 0; Plant response rating (0 to 100 scale), Kochia (kochia (Kochia scoparia) [5]; 31 g ai/ha): 0; Plant response rating (0 to 100 scale), Ragweed ([6]; 31 g ai/ha): 0; Corn plant response rating (corn (Zea mays); 31 g ai/ha): 0; Pigweed plant response rating ([7]; 31 g ai/ha): 0; Foxtail, Giant plant response rating ([8]; 31 g ai/ha): 0; Barnyardgrass plant response rating ([9]; 31 g ai/ha): 0; Wheat plant response rating ([10]; 31 g ai/ha): 0; Blackgrass plant response rating ([11]; 31 g ai/ha): 0; Ryegrass, It. plant response rating ([12]; 31 g ai/ha): 0; Kochia plant response rating (kochia (Kochia scoparia) [13]; 31 g ai/ha): 0; Galium plant response rating ([14]; 31 g ai/ha): 20; Ragweed plant response rating ([15]; 31 g ai/ha): 0
CC(=O)Oc1c(Cl)nn(C)c(=O)c1-c1cccc2cccnc12 [Compound 71] | 60 | 10 | 20 | 80 | 30 | 10 | 0 | 50 | 30 | 40 | 30 | 70 | 90 |  | 80 | 70 | 0 | 0 | 0 | 0 | Sedge, Umbrella plant response rating (0 to 100 scale, 0 is no effect, 100 is complete control) [18]: 0; Plant response rating (0 to 100 scale), Foxtail, Giant ([2]; 31 g ai/ha): 0; Plant response rating (0 to 100 scale), Barnyardgrass ([3]; 31 g ai/ha): 0; Plant response rating (0 to 100 scale), Ryegrass, It. ([4]; 31 g ai/ha): 20; Plant response rating (0 to 100 scale), Kochia (kochia (Kochia scoparia) [5]; 31 g ai/ha): 0; Plant response rating (0 to 100 scale), Ragweed ([6]; 31 g ai/ha): 0; Plant response rating (0 to 100 scale), Corn (corn (Zea mays); [19]): 0; Plant response rating (0 to 100 scale), Pigweed [7, 19]: 20; Plant response rating (0 to 100 scale), Foxtail, Giant [8, 19]: 10; Barnyardgrass plant response rating ([9]; 31 g ai/ha): 10; Plant response rating (0 to 100 scale), Wheat [10, 19]: 0; Blackgrass plant response rating ([11]; 31 g ai/ha): 10; Plant response rating (0 to 100 scale), Ryegrass, It. [12, 19]: 50; Plant response rating (0 to 100 scale), Galium [14, 19]: 60; Plant response rating (0 to 100 scale), Ragweed [15, 19]: 30

Reference: US10750743B2, “Pyridazinone herbicides” (E.I. DU PONT DE NEMOURS AND COMPANY, priority 2015, dated 2020)
